Test results as given in US11306092B2, “Amino indole compounds useful as TLR inhibitors” (BRISTOL-MYERS SQUIBB COMPANY, priority 2017, dated 2022).

What was measured:
human TLR9 = target: T1, human TLR9 (Homo sapiens, UniProt Q9NR96); experiment: TLR9 inhibition reporter assay (HEK-Blue SEAP reporter); type: cell-based; conditions: HEK-Blue cells overexpressing human TLR9; ODN2006 5 nM; 22 hour incubation
T1 construct: host or cells: HEK-Blue cells
T1 sequence (Q9NR96 26-1032): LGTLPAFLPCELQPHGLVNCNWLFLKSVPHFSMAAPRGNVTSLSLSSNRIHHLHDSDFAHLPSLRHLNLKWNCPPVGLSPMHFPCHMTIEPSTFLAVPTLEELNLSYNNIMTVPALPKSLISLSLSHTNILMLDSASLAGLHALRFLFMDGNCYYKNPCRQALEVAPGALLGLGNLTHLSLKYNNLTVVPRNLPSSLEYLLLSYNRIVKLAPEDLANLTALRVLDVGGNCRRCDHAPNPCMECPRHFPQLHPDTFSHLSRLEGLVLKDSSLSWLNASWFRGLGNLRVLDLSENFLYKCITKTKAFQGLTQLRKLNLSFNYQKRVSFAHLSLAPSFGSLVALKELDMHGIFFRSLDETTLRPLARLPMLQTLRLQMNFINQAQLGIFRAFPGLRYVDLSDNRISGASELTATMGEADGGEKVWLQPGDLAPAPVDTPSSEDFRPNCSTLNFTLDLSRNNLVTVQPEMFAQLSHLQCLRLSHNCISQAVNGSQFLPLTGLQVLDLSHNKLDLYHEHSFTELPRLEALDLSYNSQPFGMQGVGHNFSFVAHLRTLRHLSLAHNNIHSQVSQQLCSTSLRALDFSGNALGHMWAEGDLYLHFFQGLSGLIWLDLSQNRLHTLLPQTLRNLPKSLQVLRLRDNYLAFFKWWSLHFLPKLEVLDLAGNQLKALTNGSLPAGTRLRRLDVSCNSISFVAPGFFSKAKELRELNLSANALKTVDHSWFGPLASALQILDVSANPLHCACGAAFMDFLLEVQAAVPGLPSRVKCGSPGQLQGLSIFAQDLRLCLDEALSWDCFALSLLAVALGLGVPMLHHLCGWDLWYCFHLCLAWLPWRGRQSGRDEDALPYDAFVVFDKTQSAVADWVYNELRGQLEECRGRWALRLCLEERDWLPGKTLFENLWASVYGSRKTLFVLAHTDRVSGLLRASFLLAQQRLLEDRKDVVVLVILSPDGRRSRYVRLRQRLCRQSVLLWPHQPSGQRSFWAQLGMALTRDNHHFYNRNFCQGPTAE
Method: (§1) TLR7/8/9 Inhibition Reporter Assays
(§2) HEK-Blue™-cells (Invivogen) overexpressing human TLR7, TLR8 or TLR9 receptors were used for screening inhibitors of these receptors using an inducible SEAP (secreted embryonic alkaline phosphatase) reporter gene under the control of the IFN-β minimal promoter fused to five NF-κB and AP-1-binding sites. Briefly, cells are seeded into Greiner 384 well plates (15000 cells per well for TLR7, 20,000 for TLR8 and 25,000 for TLR9) and then treated with test compounds in DMSO to yield a final dose response concentration range of 0.05 nM-50 μM. After a 30 minute compound pre-treatment at room temperature, the cells are then stimulated with a TLR7 ligand (gardiquimod at a final concentration of 7.5 μM), TLR8 ligand (R848 at a final concentration of 15.9 μM) or TLR9 ligand (ODN2006 at a final concentration of 5 nM) to activate NF-κB and AP-1 which induce the production of SEAP. After a 22 hour incubation at 37° C., 5% CO2, SEAP levels are determined with the addition of HEK-Blue™ Detection reagent (Invivogen), a cell culture medium that allows for detection of SEAP, according to manufacturer's specifications. The percent inhibition is determined as the % reduction in the HEK-Blue signal present in wells treated with agonist plus DMSO alone compared to wells treated with a known inhibitor.

human TLR7 = target: T2, human TLR7 (Homo sapiens, UniProt Q9NYK1); experiment: TLR7 inhibition reporter assay (HEK-Blue SEAP reporter); type: cell-based; conditions: HEK-Blue cells overexpressing human TLR7; gardiquimod 7.5 μM; 22 hour incubation
T2 construct: host or cells: HEK-Blue cells
T2 sequence (Q9NYK1 27-1049): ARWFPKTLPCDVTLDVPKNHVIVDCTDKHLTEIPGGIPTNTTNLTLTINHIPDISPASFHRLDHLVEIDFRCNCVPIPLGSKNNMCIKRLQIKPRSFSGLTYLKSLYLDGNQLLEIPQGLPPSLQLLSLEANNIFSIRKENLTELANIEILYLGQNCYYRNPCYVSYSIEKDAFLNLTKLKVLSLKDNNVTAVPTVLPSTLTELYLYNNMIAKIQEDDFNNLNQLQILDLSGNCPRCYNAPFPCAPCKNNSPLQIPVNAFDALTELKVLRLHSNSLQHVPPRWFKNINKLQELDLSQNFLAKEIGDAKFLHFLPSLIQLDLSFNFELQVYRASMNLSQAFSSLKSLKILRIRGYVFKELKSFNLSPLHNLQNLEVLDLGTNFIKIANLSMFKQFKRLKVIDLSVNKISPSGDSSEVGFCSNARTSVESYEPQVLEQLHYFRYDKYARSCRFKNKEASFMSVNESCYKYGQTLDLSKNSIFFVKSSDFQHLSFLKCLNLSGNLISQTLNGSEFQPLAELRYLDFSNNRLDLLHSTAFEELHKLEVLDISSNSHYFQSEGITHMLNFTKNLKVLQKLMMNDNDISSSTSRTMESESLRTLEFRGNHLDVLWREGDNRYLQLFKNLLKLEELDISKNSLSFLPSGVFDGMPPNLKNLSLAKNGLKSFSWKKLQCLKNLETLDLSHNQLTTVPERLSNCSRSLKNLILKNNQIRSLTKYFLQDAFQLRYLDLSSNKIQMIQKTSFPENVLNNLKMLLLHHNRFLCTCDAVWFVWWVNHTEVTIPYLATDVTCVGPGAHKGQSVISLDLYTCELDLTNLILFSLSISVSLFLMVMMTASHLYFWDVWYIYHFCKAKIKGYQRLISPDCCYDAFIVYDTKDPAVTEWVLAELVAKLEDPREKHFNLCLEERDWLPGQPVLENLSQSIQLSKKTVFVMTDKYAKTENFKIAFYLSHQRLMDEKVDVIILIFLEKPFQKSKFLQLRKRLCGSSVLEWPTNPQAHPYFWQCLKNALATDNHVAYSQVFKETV
Method: as §1, §2

Structure (SMILES) | IC50 (human TLR9) | IC50 (human TLR7)
CNCCNC1CCC(Nc2ccc3[nH]c(-c4ccc(OC)c(OC)c4)c(C(C)C)c3c2)CC1 (single isomer, unassigned) [Example 31, N1-(2-(3,4-dimethoxyphenyl)-3-isopropyl-1H-indol-5-yl)-N4-(2-(methylamino)ethyl)cyclohexane-1,4-diamine] | 1440 nM | 1130 nM
CCc1c(-c2ccc(OC)c(OC)c2)[nH]c2ccc(N(CC)C3CCN(C4CCN(C)CC4)CC3)cc12 [Example 28, 2-(3,4-dimethoxyphenyl)-N,3-diethyl-N-(1′-methyl-1,4′-bipiperidin-4-yl)-1H-indol-5-amine] | 627 nM | 2220 nM
COc1ccc(-c2[nH]c3ccc(NC4CCC(NCCN(C)C)CC4)cc3c2C(C)C)cc1OC (stereo not drawn) [Example 32, N1-(2-(3,4-dimethoxyphenyl)-3-isopropyl-1H-indol-5-yl)-N4-(2-(dimethylamino)ethyl)cyclohexane-1,4-diamine] | 610 nM | 191 nM
COc1ccc(-c2[nH]c3ccc(NC4CCC(NCCN(C)C)CC4)cc3c2C(C)C)cc1OC (stereo not drawn) [Example 33, N1-(2-(3,4-dimethoxyphenyl)-3-isopropyl-1H-indol-5-yl)-N4-(2-(dimethylamino)ethyl)cyclohexane-1,4-diamine] | 650 nM | 136 nM
COc1ccc(-c2[nH]c3ccc(NC4CCC(NCCCN(C)C)CC4)cc3c2C(C)C)cc1OC (stereo not drawn) [Example 36, N1-(2-(3,4-dimethoxyphenyl)-3-isopropyl-1H-indol-5-yl)-N4-(3-(dimethylamino)propyl) cyclohexane-1,4-diamine] | 583 nM | 225 nM
COc1ccc(-c2[nH]c3ccc(NC4CCC(NCCCN(C)C)CC4)cc3c2C(C)C)cc1OC (stereo not drawn) [Example 37, N1-(2-(3,4-dimethoxyphenyl)-3-isopropyl-1H-indol-5-yl)-N4-(3-(dimethylamino)propyl) cyclohexane-1,4-diamine] | 1430 nM | 171 nM
COc1ccc(-c2[nH]c3ccc(NC4CCC(N(C)CCCN(C)C)CC4)cc3c2C(C)C)cc1OC (stereo not drawn) [Example 42, N1-(2-(3,4-dimethoxyphenyl)-3-isopropyl-1H-indol-5-yl)-N4-(3-(dimethylamino)propyl)-N4-methylcyclohexane-1,4-diamine] | 1010 nM | 106 nM
COc1ccc(-c2[nH]c3ccc(NC4CCC(N(C)CCCN(C)C)CC4)cc3c2C(C)C)cc1OC (stereo not drawn) [Example 43, N1-(2-(3,4-dimethoxyphenyl)-3-isopropyl-1H-indol-5-yl)-N4-(3-(dimethylamino)propyl)-N4-methylcyclohexane-1,4-diamine] | 477 nM | 252 nM

Second part, the compound after the results:

IC50 (human TLR9) | IC50 (human TLR7) | Structure (SMILES)
991 nM | 221 nM | COc1ccc(-c2[nH]c3ccc(NC4CCC(NC5CCN(C)CC5)CC4)cc3c2C(C)C)cc1OC (single isomer, unassigned) [Example 41, N1-(2-(3,4-dimethoxyphenyl)-3-isopropyl-1H-indol-5-yl)-N4-(1-methylpiperidin-4-yl)cyclohexane-1,4-diamine]
4070 nM | 375 nM | COc1ccc(-c2[nH]c3ccc(NC4CCC(N5CCN(C(C)=O)CC5)CC4)cc3c2C(C)C)cc1OC (single isomer, unassigned) [Example 44, 1-(4-(4-((2-(3,4-dimethoxyphenyl)-3-isopropyl-1H-indol-5-yl)amino)cyclohexyl)piperazin-1-yl)ethan-1-one]
1270 nM | 349 nM | COc1ccc(-c2[nH]c3ccc(NC4CCC(N5CCN(C(C)=O)CC5)CC4)cc3c2C(C)C)cc1OC (single isomer, unassigned) [Example 45, 1-(4-(4-((2-(3,4-dimethoxyphenyl)-3-isopropyl-1H-indol-5-yl)amino)cyclohexyl)piperazin-1-yl)ethan-1-one]
769 nM | 281 nM | COc1ccc(-c2[nH]c3ccc(NC4CCC(N5CCN(C)CC5)CC4)cc3c2C(C)C)cc1OC (stereo not drawn) [Example 34, 2-(3,4-dimethoxyphenyl)-3-isopropyl-N-(4-(4-methylpiperazin-1-yl)cyclohexyl)-1H-indol-5-amine]
716 nM | 450 nM | CCN1CCN(C2CCC(Nc3ccc4[nH]c(-c5ccc(OC)c(OC)c5)c(C(C)C)c4c3)CC2)CC1 (stereo not drawn) [Example 38, 2-(3,4-dimethoxyphenyl)-N-(4-(4-ethylpiperazin-1-yl)cyclohexyl)-3-isopropyl-1H-indol-5-amine]
1230 nM | 242 nM | CCN1CCN(C2CCC(Nc3ccc4[nH]c(-c5ccc(OC)c(OC)c5)c(C(C)C)c4c3)CC2)CC1 (stereo not drawn) [Example 39, 2-(3,4-dimethoxyphenyl)-N-(4-(4-ethylpiperazin-1-yl)cyclohexyl)-3-isopropyl-1H-indol-5-amine]
817 nM | 1050 nM | COc1ccc(-c2[nH]c3ccc(NC4CCC(N5CCC(N(C)C)CC5)CC4)cc3c2C(C)C)cc1OC (stereo not drawn) [Example 46, 2-(3,4-dimethoxyphenyl)-N-(4-(4-(dimethylamino)piperidin-1-yl)cyclohexyl)-3-isopropyl-H-indol-5-amine]
1250 nM | 322 nM | COc1ccc(-c2[nH]c3ccc(NC4CCC(NCCN5CCOCC5)CC4)cc3c2C(C)C)cc1OC (stereo not drawn) [Example 48, N1-(2-(3,4-dimethoxyphenyl)-3-isopropyl-1H-indol-5-yl)-N4-(2-morpholinoethyl)cyclohexane-1,4-diamine]
512 nM | 538 nM | COc1ccc(-c2[nH]c3ccc(NC4CCC(N5CCN(C(C)(C)C)CC5)CC4)cc3c2C(C)C)cc1OC (stereo not drawn) [Example 49, N-(4-(4-(tert-butyl)piperazin-1-yl)cyclohexyl)-2-(3,4-dimethoxyphenyl)-3-isopropyl-1H-indol-5-amine]
561 nM | 431 nM | COc1ccc(-c2[nH]c3ccc(NC4CCC(N5CCN(C(C)(C)C)CC5)CC4)cc3c2C(C)C)cc1OC (stereo not drawn) [Example 50, N-(4-(4-(tert-butyl)piperazin-1-yl)cyclohexyl)-2-(3,4-dimethoxyphenyl)-3-isopropyl-1H-indol-5-amine]
